Source: ChEMBL document CHEMBL3351825, “Polyoxypregnane steroids from the stems of Marsdenia tenacissima” (J Nat Prod, 2014)
Blank lines part the entries; values can stand above or below the compound they belong to. The source made the active and inactive calls. The rule behind the calls is not given here.

Legend:
[1] = tested on: SW-620; experiment: cells; conditions: Homo sapiens, SW-620, 72 h
Description: Growth inhibition of human SW620 cells after 72 hrs by SRB assay

[2] = tested on: SW-620; experiment: Ratio of IC50 for human SW620/AD300 cells to IC50 for human SW620 cells; type: functional
[3] = cells; conditions: Homo sapiens, SW620/AD300, 72 h
Description: Growth inhibition of human SW620/AD300 cells after 72 hrs by SRB assay

[4] = Reversal of P-gp-mediated resistance to doxorubicin in human SW620/AD300 cells assessed as reduction in doxorubin IC50 at 400 nM after 72 hrs by SRB assay; type: cell-based; conditions: SW620/AD300, 72 h
[5] = tested on: SW-620; experiment: Reversal of P-gp-mediated resistance assessed as ratio of doxorubicin IC50 for human SW620/AD300 cells to doxorubicin IC50 for human SW620 cells in presence of compound at 400 nM; type: cell-based
[6] = Reversal of P-gp-mediated resistance to doxorubicin in human SW620 cells assessed as reduction in doxorubin IC50 at 400 nM after 72 hrs by SRB assay; type: cell-based; conditions: SW-620, 72 h
[7] = Reversal of P-gp-mediated resistance to doxorubicin in human SW620/AD300 cells assessed as reduction in doxorubin IC50 at 10 uM after 72 hrs by SRB assay; type: cell-based; conditions: SW620/AD300, 72 h
[8] = Reversal of P-gp-mediated resistance to cisplatin in human SW620 cells assessed as reduction in doxorubin IC50 at 2 uM after 72 hrs by SRB assay; type: cell-based; conditions: SW-620, 72 h
[9] = target: T1, ATP-dependent translocase ABCB1 (Homo sapiens, UniProt P08183); experiment: Inhibition of P-gp in human SW620/AD300 cells assessed as reduction in rhodamine 123 efflux by flow cytometry; type: cell-based
[10] = Reversal of P-gp-mediated resistance to cisplatin in human SW620 cells assessed as reduction in doxorubin IC50 at 10 uM after 72 hrs by SRB assay; type: cell-based; conditions: SW-620, 72 h
[11] = Reversal of P-gp-mediated resistance to doxorubicin in human SW620/AD300 cells assessed as reduction in doxorubin IC50 at 2 uM after 72 hrs by SRB assay; type: cell-based; conditions: SW620/AD300, 72 h
[12] = Reversal of P-gp-mediated resistance to doxorubicin in human SW620 cells assessed as reduction in doxorubin IC50 at 2 uM after 72 hrs by SRB assay; type: cell-based; conditions: SW-620, 72 h
[13] = tested on: NCI-H292; experiment: Induction of apoptosis in human NCI-H292 cells at 10 uM after 24 hrs using annexin V by flow cytometry; type: functional, cell-based
[14] = tested on: NCI-H460; experiment: Induction of apoptosis in human NCI-H460/Vbl cells at 10 uM after 24 hrs using annexin V by flow cytometry; type: functional, cell-based
[15] = Reversal of P-gp-mediated resistance to cisplatin in human SW620/AD300 cells assessed as reduction in doxorubin IC50 at 10 uM after 72 hrs by SRB assay; type: cell-based; conditions: SW620/AD300, 72 h
[16] = tested on: NCI-H460; experiment: Induction of apoptosis in human NCI-H460 cells at 10 uM after 24 hrs using annexin V by flow cytometry; type: functional, cell-based
[17] = tested on: NCI-H292; experiment: Induction of apoptosis in human NCI-H292 cells at 10 uM after 24 hrs using annexin V by flow cytometry in presence of 1 uM gefitinib; type: functional, cell-based
[18] = tested on: NCI-H460; experiment: Induction of apoptosis in human NCI-H460 cells at 10 uM after 24 hrs using annexin V by flow cytometry in presence of 1 uM gefitinib; type: functional, cell-based
[19] = tested on: NCI-H460; experiment: Induction of apoptosis in human NCI-H460/Vbl cells at 10 uM after 24 hrs using annexin V by flow cytometry in presence of 1 uM gefitinib; type: functional, cell-based
[20] = Reversal of P-gp-mediated resistance to cisplatin in human SW620/AD300 cells assessed as reduction in doxorubin IC50 at 2 uM after 72 hrs by SRB assay; type: cell-based; conditions: SW620/AD300, 72 h
[21] = target: T1, ATP-dependent translocase ABCB1; experiment: Inhibition of P-gp in human SW620/AD300 cells assessed as reduction in rhodamine 123 efflux at 50 uM by flow cytometry; type: cell-based; conditions: sw620/ad300, 50 µM
[22] = tested on: NCI-H292; experiment: Cytotoxicity against human NCI-H292 cells after 72 hrs by SRB assay; type: functional, cell-based; conditions: NCI-H292, 72 h
[23] = Cytotoxicity against human H460 cells after 72 hrs by SRB assay; conditions: NCI-H460, 72 h
[24] = Cytotoxicity against human H460/Vbl cells after 72 hrs by SRB assay

T1 sequence (P08183 whole entry): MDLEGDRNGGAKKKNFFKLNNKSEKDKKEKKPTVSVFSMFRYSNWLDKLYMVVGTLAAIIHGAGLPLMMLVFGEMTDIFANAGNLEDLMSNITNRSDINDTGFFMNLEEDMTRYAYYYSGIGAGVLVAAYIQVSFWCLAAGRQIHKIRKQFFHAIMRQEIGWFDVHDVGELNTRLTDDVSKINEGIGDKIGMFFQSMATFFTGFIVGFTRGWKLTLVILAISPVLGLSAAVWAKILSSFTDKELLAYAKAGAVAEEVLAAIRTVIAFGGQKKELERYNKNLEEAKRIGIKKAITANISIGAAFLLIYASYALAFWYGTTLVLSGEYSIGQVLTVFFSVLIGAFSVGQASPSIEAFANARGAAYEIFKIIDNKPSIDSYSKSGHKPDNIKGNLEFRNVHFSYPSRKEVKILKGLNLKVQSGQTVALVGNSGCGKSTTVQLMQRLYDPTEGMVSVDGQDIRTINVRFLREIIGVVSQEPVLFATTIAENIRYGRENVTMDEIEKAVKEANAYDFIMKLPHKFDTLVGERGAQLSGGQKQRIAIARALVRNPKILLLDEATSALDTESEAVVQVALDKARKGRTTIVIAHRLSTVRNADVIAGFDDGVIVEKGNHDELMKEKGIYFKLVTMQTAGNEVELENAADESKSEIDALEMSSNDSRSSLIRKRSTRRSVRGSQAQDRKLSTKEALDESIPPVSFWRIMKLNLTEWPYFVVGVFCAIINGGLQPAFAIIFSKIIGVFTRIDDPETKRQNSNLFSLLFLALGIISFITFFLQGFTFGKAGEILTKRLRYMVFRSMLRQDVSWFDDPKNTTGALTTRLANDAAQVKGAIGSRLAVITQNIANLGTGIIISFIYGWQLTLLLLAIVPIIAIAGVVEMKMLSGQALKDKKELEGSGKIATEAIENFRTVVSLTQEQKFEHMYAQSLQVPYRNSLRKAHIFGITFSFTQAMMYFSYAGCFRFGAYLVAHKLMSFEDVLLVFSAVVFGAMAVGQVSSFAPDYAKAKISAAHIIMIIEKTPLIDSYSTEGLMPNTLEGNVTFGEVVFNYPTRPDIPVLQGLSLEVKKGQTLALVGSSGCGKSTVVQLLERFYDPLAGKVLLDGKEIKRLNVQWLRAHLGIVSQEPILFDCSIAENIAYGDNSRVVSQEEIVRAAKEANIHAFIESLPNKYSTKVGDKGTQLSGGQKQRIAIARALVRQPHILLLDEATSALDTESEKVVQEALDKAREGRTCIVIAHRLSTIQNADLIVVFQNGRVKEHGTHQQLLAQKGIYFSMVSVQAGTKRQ

IC50 [1]: 0.17 µM
IC50 [3]: 28.2 µM
Compound: COc1cccc2c1C(=O)c1c(O)c3c(c(O)c1C2=O)C[C@@](O)(C(=O)CO)C[C@@H]3O[C@H]1C[C@H](N)[C@H](O)[C@H](C)O1 [DOXORUBICIN]
Ratio IC50 [2]: 166

Compound: C/C=C/C[C@@H](C)C(=O)[C@H]1C(=O)N[C@@H](C(C)C)C(=O)N(C)CC(=O)N(C)[C@@H](CC(C)C)C(=O)N[C@@H](C(C)C)C(=O)N(C)[C@@H](CC(C)C)C(=O)N[C@@H](C)C(=O)N[C@H](C)C(=O)N(C)[C@@H](CC(C)C)C(=O)N(C)[C@@H](CC(C)C)C(=O)N(C)[C@@H](C(C)C)C(=O)N1C [VALSPODAR]
IC50 [4]: 0.22 µM
Ratio IC50 [5]: 2
IC50 [6]: 0.1 µM

Compound: C/C=C(\C)C(=O)O[C@@H]1[C@@H](O)[C@]2(C)[C@@H](C(C)=O)CC[C@@]23O[C@]32CC[C@H]3C[C@@H](O[C@H]4C[C@@H](OC)[C@H](O[C@@H]5O[C@H](C)[C@@H](O)[C@@H](OC)[C@H]5O)[C@@H](C)O4)CC[C@]3(C)[C@@H]12
IC50 [7]: 25.6 µM

Compound: CO[C@H]1[C@@H](O)[C@H](O[C@@H]2[C@@H](C)O[C@@H](O[C@H]3CC[C@@]4(C)[C@@H](CC[C@@]56O[C@@]57CC[C@H](C(C)=O)[C@@]7(C)[C@H](O)[C@@H](O)[C@H]46)C3)C[C@H]2OC)O[C@H](C)[C@H]1O[C@@H]1O[C@H](CO)[C@@H](O)[C@H](O)[C@H]1O
IC50 [7]: 24.8 µM

Compound: CCC(C)C(=O)O[C@@H]1[C@@H](OC(C)=O)[C@]2(C)[C@@H](C(C)=O)CC[C@@]23O[C@]32CC[C@H]3CC(=O)CC[C@]3(C)[C@@H]12 (stereo not given in full)
IC50 [8]: 11.5 µM
inhibition (INH) [9]: Dose-dependent effect
IC50 [10]: 9.4 µM
IC50 [7]: 0.85 µM
IC50 [11]: 2.1 µM
IC50 [12]: 0.11 µM
Activity [13]: inactive
Activity [14]: inactive
IC50 [15]: 10.2 µM
Activity [16]: inactive
Activity [17]: Active
Activity [18]: Active
Activity [19]: Active
IC50 [20]: 12 µM
inhibition (INH) [21]: Active

Compound: CO[C@H]1[C@@H](O)[C@H](O[C@@H]2[C@@H](C)O[C@@H](O[C@H]3CC[C@@]4(C)[C@@H](CC[C@@]56O[C@@]57CC[C@H](C(C)=O)[C@@]7(C)[C@H](O)[C@@H](OC(C)=O)[C@H]46)C3)C[C@H]2OC)O[C@H](C)[C@H]1O
IC50 [7]: 23.4 µM

Compound: C#Cc1cccc(Nc2ncnc3cc(OCCOC)c(OCCOC)cc23)c1 [ERLOTINIB]
IC50 [22]: 1 µM
IC50 [23]: 9.5 µM
IC50 [24]: 21.5 µM

Compound: CO[C@H]1[C@@H](O)[C@H](O[C@@H]2[C@@H](C)O[C@@H](O[C@H]3CC[C@@]4(C)[C@@H](CC[C@@]56O[C@@]57CC[C@H](C(C)=O)[C@@]7(C)[C@H](OC(C)=O)[C@@H](OC(=O)c5ccccc5)[C@H]46)C3)C[C@H]2OC)O[C@H](C)[C@H]1O[C@@H]1O[C@H](CO)[C@@H](O[C@@H]2O[C@H](CO)[C@@H](O)[C@H](O)[C@H]2O)[C@H](O)[C@H]1O
IC50 [7]: 26.8 µM

Compound: C/C=C(\C)C(=O)O[C@@H]1[C@@H](O)[C@]2(C)[C@@H](C(C)=O)CC[C@@]23O[C@]32CC[C@H]3C[C@@H](O[C@H]4C[C@@H](OC)[C@H](O[C@@H]5O[C@H](C)[C@@H](O[C@@H]6O[C@H](CO)[C@@H](O)[C@H](O)[C@H]6O)[C@@H](OC)[C@H]5O)[C@@H](C)O4)CC[C@]3(C)[C@@H]12
IC50 [7]: 23.9 µM

Compound: CO[C@H]1[C@@H](O)[C@H](O[C@@H]2[C@@H](C)O[C@@H](O[C@H]3CC[C@@]4(C)[C@@H](CC[C@@]56O[C@@]57CC[C@H](C(C)=O)[C@@]7(C)[C@H](O)[C@@H](OC(=O)c5ccccc5)[C@H]46)C3)C[C@H]2OC)O[C@H](C)[C@H]1O
IC50 [7]: 23.4 µM
